Data as given in PMC9964544, “Evidence of Insulin-Sensitizing and Mimetic Activity of the Sesquiterpene Quinone Avarone, a Protein Tyrosine Phosphatase 1B and Aldose Reductase Dual Targeting Agent from the Marine Sponge Dysidea avara” (Pharmaceutics, 2023).
“Also recorded” adds a separate entry of the source.

Columns and labels:
human recombinant AKR1B1 = molecular target: T1, human recombinant AKR1B1 (Homo sapiens, UniProt P15121); assay: AKR1B1 inhibition assay with L-idose as substrate, NADPH oxidation (IC50); type: biochemical; details: 10 mU AKR1B1, 1.6 mM L-idose, 37 °C; IC50 ± SD
T1 construct: made in house
Method: (§1) The purification of human recombinant AKR1B1 was performed as previously described. […] The purified enzyme, stored at −80 °C in 10 mM sodium phosphate buffer pH 7.0 containing 2 mM DTT and 30% (w/v) glycerol, was extensively dialyzed against 10 mM sodium phosphate buffer pH 7.0 before use. […] The fractions containing PTP1B were collected, concentrated, and injected into a Superdex G75 column equilibrated with Tris-HCl buffer pH 8.0 containing 150 mM NaCl and 1 mM mercaptoethanol. The fractions containing PTP1B were collected and concentrated; the purity of preparation was evaluated using SDS-PAGE. The PTP1B preparation was split into fractions of 0.5 mL volume; each fraction was stored at −80 °C.
(§2) The standard assay mixture (final volume 0.7 mL) was contained in 0.25 M sodium phosphate buffer pH 6.8, 0.18 mM NADPH, 0.4 M ammonium sulfate, 0.5 mM EDTA, and 4.7 mM GAL. One unit of enzyme activity is the amount of enzyme that catalyzes the conversion of 1 µmol of substrate/min in the above assay conditions. The same assay conditions were adopted in the inhibition studies using L-idose as the substrate at the indicated concentrations. PTP1B activity was determined using p-nitrophenylphosphate (pNPP) as the synthetic substrate. The pNPP was dissolved in 0.075 M ββ-dimethylglutarate buffer, pH 7.0, containing 1 mM dithiothreitol. Each assay was carried out at 37 °C in 1 mL of assay buffer. The reactions were started by diluting an aliquot of PTP1B preparation in the assay buffer; after 30 min, the reactions were stopped by adding 2 mL of 0.2 M KOH solution. The amount of p-nitrophenol released was determined spectrophotometrically, reading the absorbance of solutions at 400 nm (ε400nm = 18 mM^−^1cm^−^1).

TC-PTP = molecular target: T2, TC-PTP (Homo sapiens, UniProt P17706); assay: TC-PTP inhibition (IC50), specificity of avarone; type: biochemical
T2 sequence (P17706 1-415): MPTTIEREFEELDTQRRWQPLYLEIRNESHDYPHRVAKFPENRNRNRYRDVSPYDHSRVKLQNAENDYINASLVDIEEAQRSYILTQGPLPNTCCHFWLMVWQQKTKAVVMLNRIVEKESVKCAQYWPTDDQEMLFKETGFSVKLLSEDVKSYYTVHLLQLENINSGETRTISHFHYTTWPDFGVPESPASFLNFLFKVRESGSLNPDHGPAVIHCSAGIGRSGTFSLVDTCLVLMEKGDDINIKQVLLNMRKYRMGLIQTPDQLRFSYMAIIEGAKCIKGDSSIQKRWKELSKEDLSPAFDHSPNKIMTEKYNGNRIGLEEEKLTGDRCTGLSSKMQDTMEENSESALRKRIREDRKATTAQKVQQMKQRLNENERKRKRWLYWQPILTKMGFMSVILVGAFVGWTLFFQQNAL
Method: To evaluate the capacity of avarone to specifically target the PTP1B enzyme, we determined the IC50 value for TC-PTP, another member of the tyrosine phosphatase family (Figure S14). […] To confirm this hypothesis, the interaction mode of avarone with TC-PTP was analyzed by in silico docking analysis carried out using the crystallographic structure (7F5N) deposited in the PDB database.
Figure S13. Binding sites of avarone (2) identified by docking analyses. ( A), General view
of interaction sites of avarone on PTP1B surface. (B), detail showing the molecules of
avarone bound into the active site of PTP1B. The images were obtained using the UCSF
Figure S14. Determination of the IC50 values of avarone for PTP1B (A), and TC-PTP (B).

C2C12 cells = assay: Seahorse XFe96 Mito Stress Test in C2C12 cells; type: cell-based; details: C2C12 treated for 30 min
Method: C2C12 cells (3 × 10^4 cells/well) were placed in XFe96 cell culture plates. After 24 h of incubation at 37 °C, cell growth medium was substituted with an XF base medium supplemented with 2 mM glutamine, 1 mM sodium pyruvate, and 10 mM glucose, pH 7.4. The plate was then transferred in a non-CO2 incubator for 1 h at 37 °C to pre-equilibrate the cells before analysis. An XF Mito Stress Test was performed to assay the cells’ ability to exploit mitochondrial oxidative metabolism, according to the manufacturer’s instructions. The oxygen consumption rate (OCR) was evaluated after the injection of a sequence of compounds that interfere with the electron transport chain: oligomycin (1 μM), carbonyl cyanide-4 (trifluoromethoxy) phenylhydrazone (FCCP) (1 μM), and Rotenone/Antimycin A (0.5 μM). All data were normalized on the protein content of each well.
Figure 10 Results of Mito Stress Test assay. (A) C2C12 cells were subjected to Seahorse XFe96-Mito Stress Test analysis to evaluate oxygen consumption rate (OCR) in real time. OCR values were normalized on protein content. (B) Basal respiration, ATP-linked OCR, spare capacity, maximal respiration, and proton leak were calculated using data obtained from OCR plot after the administration of the adenosine triphosphate ATP synthase inhibitor oligomycin, the proton uncoupler carbonylcyanide p-trifluoromethoxyphenylhydrazone (FCCP), and the combination of the respiratory complex I inhibitor rotenone and the respiratory complex III inhibitor antimycin A. Each point reported in the OCR plot represents the medium value ± SEM obtained from independent replicates (n = 3 or 4). One-way ANOVA with Dunnett’s correction was used to assess differences in experimental features by using Prism 8 software (GraphPad). Statistical significance is annotated as follows: * p ≤ 0.01, ** p ≤ 0.001, *** p ≤ 0.0001, (t-test); ns, not significant; FC, fold change.

[1] = test system: human leukemia monocytic cells (THP-1); design: method as in PMID 32075136; details: ref [19]; cited from earlier work
Human PTP1B = molecular target: T3, Human PTP1B (Homo sapiens, UniProt P18031); assay: PTP1B inhibition assay with pNPP as substrate (IC50); type: biochemical; design: polyHis (N); made in house; details: 2.5 mM pNPP, 37 °C; IC50 ± SD
T3 sequence (P18031 1-302): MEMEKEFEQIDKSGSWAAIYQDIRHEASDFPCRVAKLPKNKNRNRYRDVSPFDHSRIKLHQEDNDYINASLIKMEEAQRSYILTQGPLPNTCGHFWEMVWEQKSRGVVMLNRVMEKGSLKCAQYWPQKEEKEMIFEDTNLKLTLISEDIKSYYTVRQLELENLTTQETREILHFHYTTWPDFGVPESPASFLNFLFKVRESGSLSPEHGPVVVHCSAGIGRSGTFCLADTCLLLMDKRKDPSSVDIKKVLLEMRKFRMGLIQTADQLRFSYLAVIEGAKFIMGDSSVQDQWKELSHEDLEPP
Method: as §1, §2

IC50 (human recombinant AKR1B1): 0.078 ± 0.017 µM
IC50 (TC-PTP): 39.2 µM
affinity for TC-PTP lower than that for PTP1B (TC-PTP; ratio of IC50 values TC-PTP / PTP1B): 5.8 fold
IC50 (Human PTP1B): 6.7 ± 0.6 µM
SMILES: CC1=CCC[C@H]2[C@](C)(CC3=CC(=O)C=CC3=O)[C@@H](C)CC[C@]12C [avarone (2), avarone]
basal respiration (OCR) (C2C12 cells): does not alter basal respiration
maximal respiration (C2C12 cells): slightly increases; also recorded: increases
oxygen-dependent ATP production (C2C12 cells): does not impair the oxygen-dependent ATP production
proton leak rate (C2C12 cells): without enhancing the proton leak rate
spare capacity (C2C12 cells): slightly increases; also recorded: increases
cytotoxicity THP-1 [1]: not cytotoxic
